This passage reports Activity, MIC and inhibition results from ChEMBL document CHEMBL5608215, “Development of amphipathic derivatives of thymol and carvacrol as potent broad-spectrum antibacterial agents” (Eur J Med Chem, 2024).

As usually defined, the MIC is the least concentration at which growth counts as inhibited.

Test [1] has as its system Staphylococcus aureus. In words: Antibacterial activity against Staphylococcus aureus ATCC29213 infected in mouse model assessed as reduction in inflammatory factors in skin at 5 mg/kg, sc measured after 24 hrs by H and E staining based analysis. Format: functional, organism-based.
The subject of another test is Enterococcus. Kind of test: Antibacterial activity against vancomycin-resistant Enterococcus ATCC51299 by CLSI based serial dilution method. Format: functional.
In another test the test system is Enterococcus faecalis. In words: Antibacterial activity against Enterococcus faecalis ATCC29212 by CLSI based serial dilution method. Format: functional.
Test [2] deals with Pseudomonas aeruginosa. In words: Antibacterial activity against Pseudomonas aeruginosa ATCC27853 by CLSI based serial dilution method. Format: functional.
The subject of test [3] is Escherichia coli. In words: Antibacterial activity against Escherichia coli ATCC25922 by CLSI based serial dilution method. Format: functional.
Test [4] deals with Staphylococcus aureus. Kind of test: Antibacterial activity against Staphylococcus aureus ATCC29213 infected in mouse model assessed as bacterial load in abscesses at 5 mg/kg, sc measured after 24 hrs. Format: functional.
Test [5] relates to Staphylococcus aureus. In words: Antibacterial activity against Staphylococcus aureus ATCC29213 infected in mouse model assessed as normalization of skin cell morphology at 5 mg/kg, sc measured after 24 hrs by H and E staining based analysis. Format: functional, organism-based.
Test [6] concerns Staphylococcus aureus. In words: Antibacterial activity against Staphylococcus aureus ATCC29213 by CLSI based serial dilution method. The format is functional.
Test [7] relates to Staphylococcus aureus. In words: Bactericidal activity against Staphylococcus aureus ATCC29213 assessed as log reduction in bacterial growth at 8 times MIC incubated for 24 hrs by time-kill assay. The format is functional.
The subject of test [8] is Escherichia coli. In words: Bactericidal activity against Escherichia coli ATCC25922 incubated upto 24 hrs by time-kill assay. Format: functional, organism-based.
The subject of test [9] is Staphylococcus aureus. Kind of test: Bactericidal activity against Staphylococcus aureus ATCC29213 at MIC incubated for 24 hrs by time-kill assay. Format: functional, organism-based.
The test system of test [10] is Staphylococcus aureus. Kind of test: Bactericidal activity against Staphylococcus aureus ATCC29213 at 8 times MIC incubated for 24 hrs by time-kill assay relative to control. Format: functional.
Test [11] relates to Staphylococcus aureus. Kind of test: Bactericidal activity against Staphylococcus aureus ATCC29213 incubated upto 24 hrs by time-kill assay. The format is functional, organism-based.
In test [12] the test system is Escherichia coli. Kind of test: Bactericidal activity against Escherichia coli ATCC25922 assessed as inhibition of bacterial regrowth at 8 times MIC incubated for 24 hrs by time-kill assay. The format is functional, organism-based.
For test [13], the system named is Staphylococcus aureus. Kind of test: Antibacterial activity against methicillin-resistant Staphylococcus aureus 21-5 by CLSI based serial dilution method. Format: functional.
Test [14] concerns Pseudomonas aeruginosa. In words: Anti-biofilm activity against Pseudomonas aeruginosa ATCC27853 assessed as biofilm formation rate at 8 times MIC incubated for 48 hrs by crystal violet staining based analysis relative to control. Format: functional.
The subject of test [15] is Escherichia coli. In words: Bactericidal activity against Escherichia coli ATCC25922 at 8 times MIC incubated for 12 hrs by time-kill assay relative to control. Format: functional.
Test [16] has as its system Staphylococcus aureus. Kind of test: Inhibition of antibiotic-resistance in Staphylococcus aureus ATCC29213 at 0.5 times of MIC incubated for 20 days. The conditions noted are these: time 20.0 day. The format is functional.
Test [17] has as its system Escherichia coli. In words: Bactericidal activity against Escherichia coli ATCC25922 at MIC incubated for 24 hrs by time-kill assay. Format: functional, organism-based.

SMILES strings stand for the structures. ≈ marks a conversion by molar mass, not a printed value. Calls of active or inactive are those of the source. No cut-off for these calls is given here.

In the case of `CN[C@H](CC(C)C)C(=O)N[C@H]1C(=O)N[C@@H](CC(N)=O)C(=O)N[C@H]2C(=O)N[C@H]3C(=O)N[C@H](C(=O)N[C@H](C(=O)O)c4cc(O)cc(O)c4-c4cc3ccc4O)[C@H](O)c3ccc(c(Cl)c3)Oc3cc2cc(c3O[C@@H]2O[C@H](CO)[C@@H](O)[C@H](O)[C@H]2O[C@H]2C[C@](C)(N)[C@H](O)[C@H](C)O2)Oc2ccc(cc2Cl)[C@H]1O` [VANCOMYCIN], the outcome in the test with Staphylococcus aureus [1] and in the test on Staphylococcus aureus [5] was Active. The MIC against Enterococcus was more than 128 µg/mL; in the test on Enterococcus faecalis, 2 µg/mL (≈ 1.38 µM); in the test on Pseudomonas aeruginosa [2], more than 128 µg/mL; with Escherichia coli [3], 128 µg/mL (≈ 88.3 µM). Besides, in the test on Staphylococcus aureus [4], the Activity worked out at 3.2 log10CFU/g.

As for `CCCCCCN(CCCCCC)C(=O)C[N+](C)(C)CCCCOc1cc(C(C)C)ccc1C.[Br-]`, the MIC with Staphylococcus aureus [6] is 0.5 µg/mL; with Enterococcus it was 0.5 µg/mL; in the test on Enterococcus faecalis it was 0.125 µg/mL; with Pseudomonas aeruginosa [2], 8 µg/mL; with Escherichia coli [3], 4 µg/mL; in the test with Staphylococcus aureus [13], 8 µg/mL. Besides, the Activity in the test on Staphylococcus aureus [7] was more than 3 log10CFU/ml; in the test on Escherichia coli [8] it was “Dose-Dependent Effect”; in the test on Staphylococcus aureus [10], more than 99.9%; in the test on Staphylococcus aureus [11], “Dose-Dependent Effect”; with Pseudomonas aeruginosa [14] it was 55.3%; in the test on Escherichia coli [15], 100%. Besides, the outcome in the test on Staphylococcus aureus [9] and in the test with Escherichia coli [17] was inactive. For the same compound, the inhibition entry in the test with Escherichia coli [12] and with Staphylococcus aureus [16] was “Active” throughout.

As to `CCn1cc(C(=O)O)c(=O)c2cc(F)c(N3CCNCC3)cc21`, the inhibition result in the test with Staphylococcus aureus [16] is “inactive”.

Turning to `Cc1ccc(C(C)C)cc1OCCCC[N+](C)(C)CC(=O)N1CCOCC1.[Br-]`, the MIC in the test on Staphylococcus aureus [6], in the test on Enterococcus, against Enterococcus faecalis, in the test on Pseudomonas aeruginosa [2], with Escherichia coli [3] and in the test on Staphylococcus aureus [13] was more than 128 µg/mL each time.

On to `CCCCNC(=O)C[N+](C)(C)CCCCOc1cc(C)ccc1C(C)C.[Br-]`, for which the minimum inhibitory concentration (MIC) is 16 µg/mL in the test with Staphylococcus aureus [6]; 128 µg/mL against Enterococcus; 64 µg/mL against Enterococcus faecalis; more than 128 µg/mL in the test with Pseudomonas aeruginosa [2]; 128 µg/mL in the test with Escherichia coli [3]; 16 µg/mL in the test on Staphylococcus aureus [13].

On to `CCCN(CCC)C(=O)C[N+](C)(C)CCCCCOc1cc(C)ccc1C(C)C.[Br-]`, for which the minimal inhibitory concentration (MIC) in the test with Staphylococcus aureus [6] is 8 µg/mL; in the test on Enterococcus, 16 µg/mL; in the test with Enterococcus faecalis, 8 µg/mL; against Pseudomonas aeruginosa [2], more than 128 µg/mL; with Escherichia coli [3], 64 µg/mL; with Staphylococcus aureus [13], 8 µg/mL.

As to `CCCN(CCC)C(=O)C[N+](C)(C)CCCCOc1cc(C)ccc1C(C)C.[Br-]`, the MIC in the test on Staphylococcus aureus [6] was 8 µg/mL; against Enterococcus, 64 µg/mL; with Enterococcus faecalis it was 32 µg/mL; against Pseudomonas aeruginosa [2] it was more than 128 µg/mL; in the test with Escherichia coli [3], 128 µg/mL; against Staphylococcus aureus [13] it was 16 µg/mL.

Regarding `Cc1ccc(C(C)C)c(OCCC[N+](C)(C)CC(=O)N(CC(C)C)CC(C)C)c1.[Br-]`, the MIC in the test with Staphylococcus aureus [6] was 4 µg/mL; against Enterococcus, 16 µg/mL; in the test with Enterococcus faecalis, 8 µg/mL; in the test on Pseudomonas aeruginosa [2], more than 128 µg/mL; against Escherichia coli [3], 64 µg/mL; against Staphylococcus aureus [13], 8 µg/mL.

In the case of `CCCCN(CCCC)C(=O)C[N+](C)(C)CCCCCOc1cc(C)ccc1C(C)C.[Br-]`, the MIC was determined as 2 µg/mL against Staphylococcus aureus [6]; 8 µg/mL in the test with Enterococcus; 4 µg/mL against Enterococcus faecalis; 128 µg/mL against Pseudomonas aeruginosa [2]; 32 µg/mL in the test with Escherichia coli [3]; 2 µg/mL against Staphylococcus aureus [13].

For `CCCNC(=O)C[N+](C)(C)CCCOc1cc(C(C)C)ccc1C.[Br-]`, the MIC in the test with Staphylococcus aureus [6] was 128 µg/mL; against Enterococcus, more than 128 µg/mL; against Enterococcus faecalis, 128 µg/mL; against Pseudomonas aeruginosa [2], more than 128 µg/mL; with Escherichia coli [3] it was more than 128 µg/mL; against Staphylococcus aureus [13] it was more than 128 µg/mL.

`CCCCNC(=O)C[N+](C)(C)CCCCOc1cc(C(C)C)ccc1C.[Br-]`: the minimal inhibitory concentration (MIC) in the test on Staphylococcus aureus [6] was 16 µg/mL; with Enterococcus, 64 µg/mL; in the test with Enterococcus faecalis, 32 µg/mL; in the test on Pseudomonas aeruginosa [2], more than 128 µg/mL; in the test on Escherichia coli [3], 64 µg/mL; in the test with Staphylococcus aureus [13], 64 µg/mL.
